Results published in PubChem BioAssay (NCI).
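96-well plates; 48 h exposure; 5 concentrations. Endpoints by linear interpolation between flanking doses. Not reached: highest tested concentration assigned. TGI: concentration producing complete growth inhibition.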

Tests used:
Test in all cases: inhibition of tumour cell growth, NCI panel, 48 h
PC-3 prostate = system: PC-3 prostate
OVCAR-3 ovarian = system: OVCAR-3 ovarian
HCC-2998 colon = system: HCC-2998 colon
HT29 colon = system: HT29 colon
SNB-75 CNS = system: SNB-75 CNS
UACC-62 melanoma = system: UACC-62 melanoma
NCI-H23 lung = system: NCI-H23 lung
HCT-15 colon = system: HCT-15 colon
T-47D breast = system: T-47D breast
UO-31 renal = system: UO-31 renal
SF-295 CNS = system: SF-295 CNS

Structure (SMILES) | TGI (PC-3 prostate) [µM] | TGI (OVCAR-3 ovarian) [µM] | TGI (HCC-2998 colon) [µM] | TGI (HT29 colon) [µM] | TGI (SNB-75 CNS) [µM] | TGI (UACC-62 melanoma) [µM] | TGI (NCI-H23 lung) [µM] | TGI (HCT-15 colon) [µM] | TGI (T-47D breast) [µM] | TGI (UO-31 renal) [µM] | TGI (SF-295 CNS) [µM]
CCCCC(=O)NC1(c2cc3ccccc3s2)CCCCC1 | > 100 | > 100 | > 100 | > 100 | > 100 | > 100 | > 100 | > 100 | > 100 | > 100 | > 100
Cc1cccc(C)c1NC(=S)NC=C(C(N)=O)C(N)=O | > 100 | > 100 | > 100 | > 100 | > 100 | > 100 | > 100 | > 100 | > 100 | > 100 | > 100
c1ccc(Nc2nnc(Cn3ccc4ccccc43)s2)cc1 | > 100 | > 100 | > 100 | > 100 | 82.8 | > 100 | > 100 | > 100 | > 100 | > 100 | 80.9
COc1ccc(-c2c(CN3CCOCC3)sc3nc4ccccc4n23)cc1 | > 67.4 | > 80.9 | 99.2 | 31.1 | > 100 | > 100 | > 100 | > 95 | > 100 | > 100 | > 100
NC1=NN(c2ccccc2)C2(O)c3ccncc3C3=NN(c4ccccc4)C(=O)C132 (configuration not stated) | > 100 | > 100 | > 100 | > 100 | > 100 | > 100 | > 100 | > 100 | > 100 | > 100 | > 100
CC(=O)OC1COC(n2c(-c3ccc(Cl)cc3)cc(-c3ccccc3)c(C#N)c2=S)C(OC(C)=O)C1OC(C)=O (configuration not stated) | 46.3 | 18.2 | > 90.3 | > 64.6 | > 100 | > 31.6 | 28.3 | > 100 | 54 | 38.4 | 31.7
[O-][n+]1onc(-c2ccccc2)c1CN1CCOCC1 | > 100 | > 100 | > 100 | > 100 | > 100 | > 100 | > 100 | > 100 | > 100 | > 100 | > 100
